PubChem BioAssay (NCI)
Where “and” joins values, the source holds several entries; their conditions need not be identical. Equal values may be shown once.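 How tested: cells in 96-well plates exposed to compound for 48 hours at five concentrations. Abbreviation: GI50, concentration required for 50% inhibition of growth. TGI denotes the concentration required for complete inhibition of growth.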

What was measured:
Assay in all cases: NCI tumour cell line growth inhibition, 48 h
[1] = test system: SF-295 CNS
[2] = test system: HOP-62 NSCLC
[3] = test system: IGROV1 ovarian
[4] = test system: SN12C renal
[5] = test system: MOLT-4 leukemia
[6] = test system: KM12 colon
[7] = test system: MALME-3M melanoma
[8] = test system: PC-3 prostate
[9] = test system: HOP-92 NSCLC
[10] = test system: OVCAR-4 ovarian
[11] = test system: MDA-MB-231 breast

| SMILES | TGI [1] [µM] | TGI [2] | TGI [3] [µM] | TGI [4] [µM] | TGI [5] | TGI [6] | TGI [7] [µM] | TGI [8] | TGI [9] [µM] | TGI [10] [µM] | TGI [11] [µM] | GI50 [7] | GI50 [1] | GI50 [3] | GI50 [4] | GI50 [10] | GI50 [6] | GI50 [11] | GI50 [2] [µM] | GI50 [5] [µM] |
| --- | --- | --- | --- | --- | --- | --- | --- | --- | --- | --- | --- | --- | --- | --- | --- | --- | --- | --- | --- | --- |
| N#Cc1nn(-c2ccc(Cl)cc2)c(N)c2c(=N)n3nc(-c4ccccc4)cc3nc12 | > 24.5 | > 33.8 µM | > 32 | > 100 | > 100 µM | > 100 µM |  |  |  |  |  |  |  |  |  |  |  |  |  |  |
| Cc1cc(SCC(=O)c2ccc(Br)cc2)cc(C)[o+]1 | 65.6 | > 100 µM | > 100 | > 100 | 56.2 µM | 62.6 µM | 97.9 | > 100 µM | 74.8 | 83.7 | 98.1 |  |  |  |  |  |  |  |  |  |
| Brc1ccc(-c2ccc(-c3ccc(Br)s3)s2)s1 | > 100 | > 100 µM | > 100 | > 100 | > 100 µM | > 100 µM |  | > 100 µM | > 100 | > 100 |  |  |  |  |  |  |  |  |  |  |
| CCCCN(CCCC)CC(=O)c1ccc2cc(Cl)c3ccccc3c2c1 | > 100 | > 100 µM | 62 | > 100 | > 100 µM | > 100 µM | > 100 | > 100 µM | > 100 | 69.1 | > 100 |  |  |  |  |  |  |  |  |  |
| Cn1c2ccccc2n2c(=O)c(-c3ccc(O)cc3)nnc12 | > 100 | > 100 µM | > 100 | > 100 | > 100 µM | > 100 µM | > 100 | > 100 µM | > 100 | > 100 | > 100 |  |  |  |  |  |  |  |  |  |
| COc1ccc2c(c1)CCC(CN1CCN(CCOC(c3ccc(F)cc3)c3ccc(F)cc3)CC1)=C2 | 87.2 | > 100 µM | > 100 | 26.3 | 48.7 µM | > 100 µM | 27.9 | > 100 µM | 42 | > 100 | 31.8 |  |  |  |  |  |  |  |  |  |
| Fc1ccc(C(=NCc2ccccc2)N2CCOCC2)cc1 | > 100 | > 100 µM | > 100 | > 100 | > 100 µM | > 100 µM | > 100 | > 100 µM |  |  | > 100 |  |  |  |  |  |  |  |  |  |
| c1ccc(/C(=N/Nc2cnccn2)c2ncccn2)cc1 | > 100 | > 100 µM | > 100 | > 100 | > 100 µM | > 100 µM |  | > 100 µM | > 100 | > 100 | > 100 |  |  |  |  |  |  |  |  |  |
| O=c1[nH]c2ccc(CC(=S)N3CCN(c4ccccc4)CC3)cc2s1 | > 100 | 50.1 µM | > 100 | > 100 | > 100 µM | > 100 µM | 55.5 | > 100 µM |  |  | > 100 |  |  |  |  |  |  |  |  |  |
| Cc1[nH]n(C(=O)c2ccccc2O)c(=O)c1/C=C1\C(=O)C=Cc2ccccc21 | 26.4 | 6.64 µM | 11.5 | 13.6 | > 100 µM | > 74.1 µM | 16.5 | 23 µM | 28.7 |  | 26.8 |  |  |  |  |  |  |  |  |  |
| CCOC(=O)Cc1csc(/N=C\c2c(O)c3ccccc3oc2=O)n1 | 68.2 | 75.9 µM | > 100 |  | 42.7 µM | > 100 µM | 24.3 | > 100 µM | 47.3 | > 100 |  |  |  |  |  |  |  |  |  |  |
| CC(=O)OCC1OC(n2c(-c3ccccc3)c(N=Nc3ccc(Cl)cc3)c(C)c(C#N)c2=S)C(OC(C)=O)C(OC(C)=O)C1OC(C)=O (stereo unspecified) | > 100 | 52.9 µM and > 100 µM | > 100 | > 100 | 21.5 µM and > 100 µM | 24.4 µM and > 100 µM | > 100 | 37.4 µM and > 100 µM |  | > 100 | > 100 | 20.1 µM and > 100 µM | 25.2 µM and 56.7 µM | 7.17 µM and 29.9 µM | 12.2 µM and > 100 µM | 13.8 µM and 31.8 µM | 9.22 µM and 85.4 µM | 20.3 µM and 45.2 µM |  |  |
| CC1OC(OP(=O)(OCc2ccccc2)OCc2ccccc2)C(OC(=O)c2ccccc2)C(OC(=O)c2ccccc2)C1I (stereo unspecified) | > 100 | > 100 µM | > 100 | 52.5 | 59.1 µM | > 100 µM | > 100 |  |  | > 100 |  |  |  |  |  |  |  |  |  |  |
| N#CC(C(=O)c1ccccc1F)c1nc2cc(C(F)(F)F)ccc2s1 (stereo unspecified) | 73.4 | 63.1 µM | > 100 | 67.2 | > 100 µM | > 100 µM | 69.3 |  | 56.2 | > 100 | > 100 |  |  |  |  |  |  |  |  |  |
| COC(=O)c1nc2c(C)c(O)c(O)c([C@H](C)CCC=C(C)C)c2o1 | 47 | 67.7 µM | 48.1 |  | > 100 µM | 67.4 µM | > 100 | 93.5 µM | 66.7 | > 100 | > 100 |  |  |  |  |  |  |  |  |  |
| Cc1c(Cl)cccc1NC(=O)C(=O)C1C(=O)NC(=O)NC1=O | > 100 | > 100 µM | > 100 | > 100 | > 100 µM | > 100 µM | > 100 |  | > 100 | > 100 |  |  |  |  |  |  |  |  |  |  |
| COc1cc(-c2ccc(-c3ccc(C(=N)N)s3)s2)cc(OC)c1OC | 3.39 | 3.97 µM |  | 3.17 | 5 µM |  | 3.53 |  |  | 3.95 |  | 1.74 µM | 1.78 µM |  | 1.61 µM | 1.82 µM |  |  | 1.97 | 2.4 |
| N=C(/C=C/c1ccc(-c2cn3cc(/C=C/C(=N)N4CCOCC4)ccc3n2)cc1)N1CCOCC1 | > 100 | > 100 µM | > 100 | > 100 |  | > 100 µM | > 100 | > 100 µM | > 100 | > 100 | > 100 |  |  |  |  |  |  |  |  |  |
| CC(C)(C)[Si](C)(C)OCC1OC(n2ccc(=O)[nH]c2=O)C(O[Si](C)(C)C(C)(C)C)/C1=N/O (stereo unspecified) | > 40.7 | 17 µM | 15.6 | 16.3 | 6.57 µM | > 22.6 µM |  | 13.7 µM | 8.95 | 17.8 | 54.6 |  |  |  |  |  |  |  |  |  |
| CCC(=O)O[C@@H]1C2C(OC(C)=O)C34COC(C)([C@@H]3C3C(C[C@]3(C)OC(C)=O)[C@@H](OC(=O)c3ccccc3)C4=O)[C@H](OC(C)=O)[C@@]2(OC(C)=O)C[C@@H]1C (stereo partly specified) | 48.7 | > 100 µM | 40 | > 100 | > 100 µM | > 100 µM | > 100 |  | 40.8 | 44.7 |  |  |  |  |  |  |  |  |  |  |
